This is an account of results in BindingDB's records for PubMed 36069713 (China Pharmaceutical University, 2022).

This assay can be described thus: Agonist activity at STING in STING knockout human THP-1 cells harboring IRF-inducible luciferase reporter construct assessed as increase in relative […] unit incubated for 12 hrs by Quanti-luc reagent based assay. On the technique in general: A reporter such as luciferase makes a cellular process visible.

On to `CC[C@H](CC(=O)c1cc2cc(OC)c(OC)cc2[se]1)C(=O)O`, for which the EC50 is above 100 µM.

In general, EC50 refers to the concentration needed to bring the measured effect to its halfway point.
